Earlier results as cited in patent US20060062074A1, “Method for intracellular modifications within living cells using pulsed electric fields” (priority 2001, published 2006).

System: a variety of cell lines
Details: 0.0075% Triton X-100; positive control; literature (Borner et al. 1994)

For Triton X-100, the induction of apoptosis is given as “induce apoptosis”.
